The values below come from PubChem BioAssay (NCI).

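Compound exposure: 48 hours, 5 concentrations, 96-well plates. GI50: concentration for 50% inhibition of growth. TGI: total growth inhibition.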

Test systems include CCRF-CEM leukemia; COLO 205 colon; HL-60(TB) leukemia; HOP-62 NSCLC; NCI-H460 lung; OVCAR-4 ovarian; OVCAR-8 ovarian; SF-268 CNS; SF-295 CNS; SR leukemia.
Common to all, as to assay: growth of human tumour cells (NCI), 48 h

Consider `CC(=O)N1CC(F)(F)c2c(Sc3ncc(N4CCC5(CC4)COC[C@H]5N)nc3N)cccc21`, for which the GI50 is 18.7 µM in the assay on CCRF-CEM leukemia; 17.8 µM in the assay with COLO 205 colon; 18.3 µM with HL-60(TB) leukemia; 3.69 µM in the assay with HOP-62 NSCLC; 31.8 µM with NCI-H460 lung; 10.5 µM in the assay with OVCAR-4 ovarian. The GI50 in the assay on OVCAR-8 ovarian is 35 µM; with SF-268 CNS it was 17.4 µM; with SF-295 CNS, 15.2 µM; in the assay on SR leukemia, 8.16 µM. Besides, the TGI in the assay with CCRF-CEM leukemia was 68.5 µM; in the assay with COLO 205 colon it was 36.7 µM; in the assay with HL-60(TB) leukemia, 36.4 µM; in the assay with HOP-62 NSCLC it was 75.1 µM; in the assay with NCI-H460 lung it was more than 100 µM; in the assay with OVCAR-4 ovarian, 96.6 µM. Moreover, the TGI was more than 100 µM in the assay with OVCAR-8 ovarian, more than 100 µM with SF-268 CNS, 50.7 µM in the assay with SF-295 CNS and 35.8 µM in the assay with SR leukemia.

`COc1cc2c(cc1C)n(O)c(C)c(C(=O)C/C(=N/NC(=O)C[N+](C)(C)C)C(=O)Nc1cccc(Cl)c1C)[n+]2=O`: the TGI with CCRF-CEM leukemia, in the assay with COLO 205 colon, in the assay with HL-60(TB) leukemia, in the assay with HOP-62 NSCLC, in the assay on NCI-H460 lung and in the assay with OVCAR-4 ovarian was more than 100 µM each time. Moreover, the TGI in the assay on OVCAR-8 ovarian, in the assay with SF-268 CNS, in the assay on SF-295 CNS and in the assay with SR leukemia was more than 100 µM each time.

Regarding `O=C(/C=C\c1ccnc2ccccc12)c1ccc([N+](=O)[O-])cc1`, the GI50 is 3.41 µM in the assay with CCRF-CEM leukemia; 23.1 µM in the assay with COLO 205 colon; 5.89 µM with HL-60(TB) leukemia; more than 38.4 µM with HOP-62 NSCLC; more than 68.1 µM in the assay on NCI-H460 lung; 3.71 µM in the assay with OVCAR-4 ovarian. For the same compound, the GI50 in the assay on OVCAR-8 ovarian is 12.4 µM; in the assay with SF-268 CNS, 21.6 µM; in the assay with SF-295 CNS it was 23.4 µM; with SR leukemia, 2.28 µM. Moreover, the TGI was more than 48.1 µM in the assay on CCRF-CEM leukemia; more than 100 µM with COLO 205 colon; more than 75.5 µM with HL-60(TB) leukemia; more than 80.1 µM with HOP-62 NSCLC; more than 100 µM with NCI-H460 lung; more than 100 µM with OVCAR-4 ovarian. Also, the TGI in the assay on OVCAR-8 ovarian was more than 100 µM; in the assay on SF-268 CNS, more than 82.8 µM; in the assay with SF-295 CNS it was more than 100 µM; in the assay on SR leukemia, 7.37 µM.

Take `CCOC(=O)C12CC1(C(=O)OCC)C1CCC2C1` (stereo not given): the TGI in the assay with CCRF-CEM leukemia, in the assay on COLO 205 colon, with HL-60(TB) leukemia, with HOP-62 NSCLC, in the assay on NCI-H460 lung and in the assay with OVCAR-4 ovarian was more than 100 µM in each case. Also, the TGI with OVCAR-8 ovarian, in the assay with SF-268 CNS, in the assay with SF-295 CNS and in the assay on SR leukemia was more than 100 µM throughout.

Take `COc1ccc(C(=O)C=C2NCCN2)cc1`: the TGI in the assay with CCRF-CEM leukemia, in the assay on COLO 205 colon, in the assay on HL-60(TB) leukemia, with HOP-62 NSCLC, in the assay with NCI-H460 lung and with OVCAR-4 ovarian was more than 100 µM each time. Further, the TGI with OVCAR-8 ovarian, with SF-268 CNS, in the assay with SF-295 CNS and in the assay on SR leukemia was more than 100 µM each time.

In the case of `O=C(/C=C/c1ccco1)Nc1ncc(Cc2ccc(F)cc2)s1`, the GI50 with CCRF-CEM leukemia was 0.0614 µM; in the assay with COLO 205 colon it was 0.0352 µM; in the assay on HL-60(TB) leukemia it was 0.0533 µM; in the assay on HOP-62 NSCLC it was 0.145 µM; with NCI-H460 lung, 0.0397 µM; in the assay with OVCAR-4 ovarian it was 1.22 µM. The GI50 is 0.152 µM with OVCAR-8 ovarian, 0.201 µM with SF-268 CNS, 0.0709 µM with SF-295 CNS and 0.0356 µM with SR leukemia. The TGI in the assay on CCRF-CEM leukemia is more than 100 µM; with COLO 205 colon, 0.137 µM; in the assay on HL-60(TB) leukemia it was 0.185 µM; in the assay on HOP-62 NSCLC, more than 100 µM; with NCI-H460 lung, more than 100 µM; in the assay with OVCAR-4 ovarian, more than 100 µM. Also, the TGI is more than 100 µM with OVCAR-8 ovarian, more than 100 µM in the assay with SF-268 CNS, more than 100 µM with SF-295 CNS and more than 68 µM in the assay on SR leukemia.

`CC[C@H](C)[C@H](NC(=O)C12C3C4C1C1C2C3C41NC(C)=O)C(=O)N(C)[C@H](C[C@@H](OC(C)=O)c1nc(C(=O)N[C@@H](Cc2ccccc2)C[C@H](C)C(=O)OC)cs1)C(C)C` (stereo not given in full): the GI50 with CCRF-CEM leukemia is 0.361 µM; in the assay on COLO 205 colon, 0.346 µM; in the assay on HL-60(TB) leukemia it was 0.0679 µM; in the assay on HOP-62 NSCLC, 0.618 µM; in the assay on NCI-H460 lung it was 0.402 µM; with OVCAR-4 ovarian it was 1.38 µM. In addition, the GI50 in the assay on OVCAR-8 ovarian was 0.614 µM; in the assay with SF-268 CNS, 0.677 µM; in the assay on SF-295 CNS it was 0.494 µM; with SR leukemia it was 0.0331 µM. Further, the TGI is more than 14.3 µM in the assay on CCRF-CEM leukemia; 1.71 µM in the assay with COLO 205 colon; 0.383 µM in the assay with HL-60(TB) leukemia; more than 14.3 µM in the assay with HOP-62 NSCLC; more than 14.3 µM in the assay with NCI-H460 lung; more than 14.3 µM in the assay with OVCAR-4 ovarian. Moreover, the TGI with OVCAR-8 ovarian, in the assay on SF-268 CNS, in the assay on SF-295 CNS and with SR leukemia was more than 14.3 µM each time.
